Laboratory results taken from publication PMC6553790 (PLoS Pathogens, 2019).

system: P. falciparum Cam3.II lines; test: Isobologram analyses (fixed-ratio drug combinations); format: cell-based, Plasmodium falciparum; conditions: asynchronous parasites, 72 hr
Protocol: Assays were performed with fixed ratios of drug combinations (1:0, 4:1, 2:1, 1:1, 1:2, 1:4, and 0:1), tested in duplicate. Combinations were prepared from 16×IC50 drug stocks and tested across a range of two-fold dilutions. Assays were conducted with asynchronous cultures exposed for 72 hr or with tightly synchronized rings or trophozoites (tested at 0–3 hr or 24–27 hr post-invasion, respectively) exposed for 3 hr. Post-pulse drug washouts were conducted as described above for in vitro determination of IC50 levels. IC50 values were derived for each compound tested alone, and fractional IC50 (FIC50) values were determined for each compound tested in combination (FIC50 = […]) and plotted for each drug combination. For each combination, the mean of the sums of FIC50 values at each combination (mean ΣFIC50) was also calculated and the results illustrated using heat maps.

| Structure (SMILES) | Interaction with WLL or WLW |
| --- | --- |
| O=C(NCCN1CCCC1)c1cc(-c2ccc(CN3CCOCC3)cc2)nc2ccc(F)cc12 [DDD107498] | antagonism |
| C[C@H]1Cc2c([nH]c3cc(Cl)c(F)cc23)[C@@]2(N1)C(=O)Nc1ccc(Cl)cc12 [NITD609] | antagonism |
| CC(=O)N1CCN(c2ccc(CN(C(=O)/C=C/c3ccc(C(C)(C)C)cc3)[C@@H](Cc3ccccc3)C(=O)N3CCN(Cc4ccc(C#N)cc4)CC3)cc2)CC1 [ACT-451840] | antagonism |
| C[C@@H]1C[C@@H]([C@H](O)CC2CC(=O)NC(=O)C2)C(=O)[C@@H](C)C1 [CHX, cycloheximide] | antagonism |
| O=C(O)CCc1cccc2c1B(O)OC2 [AN3661] | antagonism |

same assay, conditions: asynchronous parasites, early rings and trophozoites; Cam3.II K13WT and K13C580Y

| Structure (SMILES) | Interaction with WLW (isobologram) |
| --- | --- |
| c1cc([C@H]2CC[C@]3(CC2)OO[C@]2(O3)C3CC4CC(C3)CC2C4)ccc1OCCN1CCOCC1 [OZ439] | synergy |
| C=CC(=O)N1C/C(=C\c2ccc([N+](=O)[O-])cc2)C(=O)/C(=C/c2ccc([N+](=O)[O-])cc2)C1 [b-AP15] | synergy |
| CN(C)c1ccc2nc3ccc(=[N+](C)C)cc-3sc2c1 [MB, methylene blue] | synergy |

same assay, conditions: asynchronous parasites, rings and trophozoites (S1 Fig)

| Structure (SMILES) | Interaction with WLL (isobologram) |
| --- | --- |
| CN(C)c1ccc2nc3ccc(=[N+](C)C)cc-3sc2c1 [MB, methylene blue] | synergy with WLL was limited to the early ring stage |

same assay, conditions: combined with WLL; Asynchronous, 72 hr; Cam3.II K13C580Y

| Structure (SMILES) | Mean of the sums of FIC50 (mean ΣFIC50) |
| --- | --- |
| O=C(NCCN1CCCC1)c1cc(-c2ccc(CN3CCOCC3)cc2)nc2ccc(F)cc12 [DDD107498] | 1.60 |
| C[C@H]1Cc2c([nH]c3cc(Cl)c(F)cc23)[C@@]2(N1)C(=O)Nc1ccc(Cl)cc12 [NITD609] | 1.67 |
| c1cc([C@H]2CC[C@]3(CC2)OO[C@]2(O3)C3CC4CC(C3)CC2C4)ccc1OCCN1CCOCC1 [OZ439] | 1.10 |
| C=CC(=O)N1C/C(=C\c2ccc([N+](=O)[O-])cc2)C(=O)/C(=C/c2ccc([N+](=O)[O-])cc2)C1 [b-AP15] | 1.11 |
| CC(=O)N1CCN(c2ccc(CN(C(=O)/C=C/c3ccc(C(C)(C)C)cc3)[C@@H](Cc3ccccc3)C(=O)N3CCN(Cc4ccc(C#N)cc4)CC3)cc2)CC1 [ACT-451840] | 1.27 |
| C[C@@H]1C[C@@H]([C@H](O)CC2CC(=O)NC(=O)C2)C(=O)[C@@H](C)C1 [CHX, cycloheximide] | 1.40 |
| O=C(O)CCc1cccc2c1B(O)OC2 [AN3661] | 1.58 |
| CN(C)c1ccc2nc3ccc(=[N+](C)C)cc-3sc2c1 [MB, methylene blue] | 1.20 |

same assay, conditions: combined with WLL; Asynchronous, 72 hr; Cam3.II K13WT

| Structure (SMILES) | Mean of the sums of FIC50 (mean ΣFIC50) |
| --- | --- |
| O=C(NCCN1CCCC1)c1cc(-c2ccc(CN3CCOCC3)cc2)nc2ccc(F)cc12 [DDD107498] | 1.65 |
| C[C@H]1Cc2c([nH]c3cc(Cl)c(F)cc23)[C@@]2(N1)C(=O)Nc1ccc(Cl)cc12 [NITD609] | 1.58 |
| c1cc([C@H]2CC[C@]3(CC2)OO[C@]2(O3)C3CC4CC(C3)CC2C4)ccc1OCCN1CCOCC1 [OZ439] | 1.21 |
| C=CC(=O)N1C/C(=C\c2ccc([N+](=O)[O-])cc2)C(=O)/C(=C/c2ccc([N+](=O)[O-])cc2)C1 [b-AP15] | 1.05 |
| CC(=O)N1CCN(c2ccc(CN(C(=O)/C=C/c3ccc(C(C)(C)C)cc3)[C@@H](Cc3ccccc3)C(=O)N3CCN(Cc4ccc(C#N)cc4)CC3)cc2)CC1 [ACT-451840] | 1.34 |
| C[C@@H]1C[C@@H]([C@H](O)CC2CC(=O)NC(=O)C2)C(=O)[C@@H](C)C1 [CHX, cycloheximide] | 1.44 |
| O=C(O)CCc1cccc2c1B(O)OC2 [AN3661] | 1.69 |
| CN(C)c1ccc2nc3ccc(=[N+](C)C)cc-3sc2c1 [MB, methylene blue] | 1.22 |

same assay, conditions: combined with WLL; Rings, 3 hr exposure; Cam3.II K13C580Y

| Structure (SMILES) | Mean of the sums of FIC50 (mean ΣFIC50) |
| --- | --- |
| c1cc([C@H]2CC[C@]3(CC2)OO[C@]2(O3)C3CC4CC(C3)CC2C4)ccc1OCCN1CCOCC1 [OZ439] | 0.79 |
| C=CC(=O)N1C/C(=C\c2ccc([N+](=O)[O-])cc2)C(=O)/C(=C/c2ccc([N+](=O)[O-])cc2)C1 [b-AP15] | 0.77 |
| CN(C)c1ccc2nc3ccc(=[N+](C)C)cc-3sc2c1 [MB, methylene blue] | 0.84 |

same assay, conditions: combined with WLL; Rings, 3 hr exposure; Cam3.II K13WT

| Structure (SMILES) | Mean of the sums of FIC50 (mean ΣFIC50) |
| --- | --- |
| c1cc([C@H]2CC[C@]3(CC2)OO[C@]2(O3)C3CC4CC(C3)CC2C4)ccc1OCCN1CCOCC1 [OZ439] | 0.65 |
| C=CC(=O)N1C/C(=C\c2ccc([N+](=O)[O-])cc2)C(=O)/C(=C/c2ccc([N+](=O)[O-])cc2)C1 [b-AP15] | 0.80 |
| CN(C)c1ccc2nc3ccc(=[N+](C)C)cc-3sc2c1 [MB, methylene blue] | 0.87 |

same assay, conditions: combined with WLL; Trophozoites, 3 hr exposure; Cam3.II K13C580Y

| Structure (SMILES) | Mean of the sums of FIC50 (mean ΣFIC50) |
| --- | --- |
| c1cc([C@H]2CC[C@]3(CC2)OO[C@]2(O3)C3CC4CC(C3)CC2C4)ccc1OCCN1CCOCC1 [OZ439] | 0.67 |
| C=CC(=O)N1C/C(=C\c2ccc([N+](=O)[O-])cc2)C(=O)/C(=C/c2ccc([N+](=O)[O-])cc2)C1 [b-AP15] | 0.66 |

same assay, conditions: combined with WLL; Trophozoites, 3 hr exposure; Cam3.II K13WT

| Structure (SMILES) | Mean of the sums of FIC50 (mean ΣFIC50) |
| --- | --- |
| c1cc([C@H]2CC[C@]3(CC2)OO[C@]2(O3)C3CC4CC(C3)CC2C4)ccc1OCCN1CCOCC1 [OZ439] | 0.64 |
| C=CC(=O)N1C/C(=C\c2ccc([N+](=O)[O-])cc2)C(=O)/C(=C/c2ccc([N+](=O)[O-])cc2)C1 [b-AP15] | 0.67 |

same assay, conditions: combined with WLW; Asynchronous, 72 hr; Cam3.II K13C580Y

| Structure (SMILES) | Mean of the sums of FIC50 (mean ΣFIC50) |
| --- | --- |
| O=C(NCCN1CCCC1)c1cc(-c2ccc(CN3CCOCC3)cc2)nc2ccc(F)cc12 [DDD107498] | 1.44 |
| C[C@H]1Cc2c([nH]c3cc(Cl)c(F)cc23)[C@@]2(N1)C(=O)Nc1ccc(Cl)cc12 [NITD609] | 1.44 |
| c1cc([C@H]2CC[C@]3(CC2)OO[C@]2(O3)C3CC4CC(C3)CC2C4)ccc1OCCN1CCOCC1 [OZ439] | 0.76 |
| C=CC(=O)N1C/C(=C\c2ccc([N+](=O)[O-])cc2)C(=O)/C(=C/c2ccc([N+](=O)[O-])cc2)C1 [b-AP15] | 0.78 |
| CC(=O)N1CCN(c2ccc(CN(C(=O)/C=C/c3ccc(C(C)(C)C)cc3)[C@@H](Cc3ccccc3)C(=O)N3CCN(Cc4ccc(C#N)cc4)CC3)cc2)CC1 [ACT-451840] | 1.14 |
| C[C@@H]1C[C@@H]([C@H](O)CC2CC(=O)NC(=O)C2)C(=O)[C@@H](C)C1 [CHX, cycloheximide] | 1.37 |
| O=C(O)CCc1cccc2c1B(O)OC2 [AN3661] | 1.63 |
| CN(C)c1ccc2nc3ccc(=[N+](C)C)cc-3sc2c1 [MB, methylene blue] | 0.83 |

same assay, conditions: combined with WLW; Asynchronous, 72 hr; Cam3.II K13WT

| Structure (SMILES) | Mean of the sums of FIC50 (mean ΣFIC50) |
| --- | --- |
| O=C(NCCN1CCCC1)c1cc(-c2ccc(CN3CCOCC3)cc2)nc2ccc(F)cc12 [DDD107498] | 1.28 |
| C[C@H]1Cc2c([nH]c3cc(Cl)c(F)cc23)[C@@]2(N1)C(=O)Nc1ccc(Cl)cc12 [NITD609] | 1.39 |
| c1cc([C@H]2CC[C@]3(CC2)OO[C@]2(O3)C3CC4CC(C3)CC2C4)ccc1OCCN1CCOCC1 [OZ439] | 0.85 |
| C=CC(=O)N1C/C(=C\c2ccc([N+](=O)[O-])cc2)C(=O)/C(=C/c2ccc([N+](=O)[O-])cc2)C1 [b-AP15] | 0.86 |
| CC(=O)N1CCN(c2ccc(CN(C(=O)/C=C/c3ccc(C(C)(C)C)cc3)[C@@H](Cc3ccccc3)C(=O)N3CCN(Cc4ccc(C#N)cc4)CC3)cc2)CC1 [ACT-451840] | 1.16 |
| C[C@@H]1C[C@@H]([C@H](O)CC2CC(=O)NC(=O)C2)C(=O)[C@@H](C)C1 [CHX, cycloheximide] | 1.29 |
| O=C(O)CCc1cccc2c1B(O)OC2 [AN3661] | 1.64 |
| CN(C)c1ccc2nc3ccc(=[N+](C)C)cc-3sc2c1 [MB, methylene blue] | 0.89 |

same assay, conditions: combined with WLW; Rings, 3 hr exposure; Cam3.II K13C580Y

| Structure (SMILES) | Mean of the sums of FIC50 (mean ΣFIC50) |
| --- | --- |
| c1cc([C@H]2CC[C@]3(CC2)OO[C@]2(O3)C3CC4CC(C3)CC2C4)ccc1OCCN1CCOCC1 [OZ439] | 0.40 |
| C=CC(=O)N1C/C(=C\c2ccc([N+](=O)[O-])cc2)C(=O)/C(=C/c2ccc([N+](=O)[O-])cc2)C1 [b-AP15] | 0.35 |
| CN(C)c1ccc2nc3ccc(=[N+](C)C)cc-3sc2c1 [MB, methylene blue] | 0.36 |

same assay, conditions: combined with WLW; Rings, 3 hr exposure; Cam3.II K13WT

| Structure (SMILES) | Mean of the sums of FIC50 (mean ΣFIC50) |
| --- | --- |
| c1cc([C@H]2CC[C@]3(CC2)OO[C@]2(O3)C3CC4CC(C3)CC2C4)ccc1OCCN1CCOCC1 [OZ439] | 0.35 |
| C=CC(=O)N1C/C(=C\c2ccc([N+](=O)[O-])cc2)C(=O)/C(=C/c2ccc([N+](=O)[O-])cc2)C1 [b-AP15] | 0.34 |
| CN(C)c1ccc2nc3ccc(=[N+](C)C)cc-3sc2c1 [MB, methylene blue] | 0.40 |

same assay, conditions: combined with WLW; Trophozoites, 3 hr exposure; Cam3.II K13C580Y

| Structure (SMILES) | Mean of the sums of FIC50 (mean ΣFIC50) |
| --- | --- |
| c1cc([C@H]2CC[C@]3(CC2)OO[C@]2(O3)C3CC4CC(C3)CC2C4)ccc1OCCN1CCOCC1 [OZ439] | 0.51 |
| C=CC(=O)N1C/C(=C\c2ccc([N+](=O)[O-])cc2)C(=O)/C(=C/c2ccc([N+](=O)[O-])cc2)C1 [b-AP15] | 0.52 |
| CN(C)c1ccc2nc3ccc(=[N+](C)C)cc-3sc2c1 [MB, methylene blue] | 0.78 |

same assay, conditions: combined with WLW; Trophozoites, 3 hr exposure; Cam3.II K13WT

| Structure (SMILES) | Mean of the sums of FIC50 (mean ΣFIC50) |
| --- | --- |
| c1cc([C@H]2CC[C@]3(CC2)OO[C@]2(O3)C3CC4CC(C3)CC2C4)ccc1OCCN1CCOCC1 [OZ439] | 0.48 |
| C=CC(=O)N1C/C(=C\c2ccc([N+](=O)[O-])cc2)C(=O)/C(=C/c2ccc([N+](=O)[O-])cc2)C1 [b-AP15] | 0.60 |
| CN(C)c1ccc2nc3ccc(=[N+](C)C)cc-3sc2c1 [MB, methylene blue] | 0.71 |

same assay, conditions: early rings and trophozoites

| Structure (SMILES) | Interaction with WLL (isobologram) |
| --- | --- |
| c1cc([C@H]2CC[C@]3(CC2)OO[C@]2(O3)C3CC4CC(C3)CC2C4)ccc1OCCN1CCOCC1 [OZ439] | Synergy |
| C=CC(=O)N1C/C(=C\c2ccc([N+](=O)[O-])cc2)C(=O)/C(=C/c2ccc([N+](=O)[O-])cc2)C1 [b-AP15] | Synergy |
